What was measured:
[1] = Stability in the presence of chlorine demand (0.1× nutrient broth), total chlorine by Hach DPD; assay type: physicochemical; settings: 5 ppm chlorine
Protocol: This can be seen in Table 4 below. 20 mL aliquots of a 0.1× nutrient broth were used and the active species added such that the initial concentration of each was equivalent to 5 ppm chlorine as measured by the Hach. To prepare the nutrient broth Difco Nutrient Broth (8 grams) was dissolved in 1 L of deionized water, and subsequently diluted to 0.1× of the initial concentration prior to being autoclaved at 121° C. for 15 minutes. 100 mL solutions of each of the actives were made, and the concentration was measured using standard Hach test procedures on a BetzDearborn DR 2010 Spectrophotometer. At each time point a 1:10 dilution of the solution in DI water was made and placed in the spectrophotometer cell. Hach Permachem DPD Total Chlorine Reagent was added and the cell was placed into the spectrophotometer. The ppm of Cl2 was measured at 0, 1, 3, 6, 24, and 48 hours. A fresh dilution was made at each time point, if necessary, and the bottles of solution were placed in a shaking incubator at 37° C. in between runs. Dimethyl monochlorourea is notated as DMCU. Bis-hydroxymethyl chlorourea is BHMCU.

Pseudomonas aeruginosa = test: Log reduction in populations of Pseudomonas aeruginosa (Example 9); assay type: cell-based; settings: P. aeruginosa, 0.3 ppm, average of two
Protocol: (§1) N-chloro-N,N′-bishydroxymethylurea can be synthesized in the same manner as N-chloro-N,N′-dimethylurea. The bishydroxyurea (1.0 g, 8.33 mmol) was added to methanol (60 mL) in a 250 mL round bottom flask equipped with a magnetic stir bar without cooling. Another aliquot of methanol (20 mL) was added to a small vial. T-butyl hypochlorite (0.75 mL, 6.66 mmol) was diluted in the vial with methanol, and this solution was subsequently added to the urea solution over a period of less than five minutes. The combined solution was stirred for up to another two hours. The solvent was removed in vacuo, resulting in a colorless and transparent oil that solidified upon prolonged standing. The solid was characterized by ^1H NMR which indicated it was 20-30% N-chloro-N,N′-bishydroxymethylurea.

Staphylococcus warneri = test: Log reduction in populations of Staphylococcus warneri (Example 9); assay type: cell-based; settings: S. warneri, 1.5 ppm, average of two
Protocol: as §1

[2] = Stability in the presence of chlorine demand (0.1× nutrient broth), total chlorine by Hach DPD; assay type: physicochemical; settings: 72 h, 5 ppm chlorine

O=C(NCO)N(Cl)CO [BHMCU, N-chloro-N,N′-bishydroxymethylurea]
Stability: total chlorine remaining relative to initial ([1]; 0 h): 100%
Stability: total chlorine remaining relative to initial ([1]; 1 h): 70%
Stability: total chlorine remaining relative to initial ([1]; 3 h): 49%
Stability: total chlorine remaining relative to initial ([1]; 6 h): 38%
Log Reduction (Pseudomonas aeruginosa; 1 hr exposure): 3.63
Log Reduction (Pseudomonas aeruginosa; 2 hr exposure): 6.98
Log Reduction (Staphylococcus warneri; 1 hr exposure): 6.37
Log Reduction (Staphylococcus warneri; 2 hr exposure): 6.52
Stability: total chlorine remaining relative to initial [2]: 3%

Reference: patent US8420012B2, “Use of monochlorourea to treat industrial waters” (Hercules Incorporated, priority 2009, dated 2013)
